Data as given in patent publication US7358258B2, “Prodrugs of an ERK protein kinase inhibitor” (Vertex Pharmaceuticals Incorporated, priority 2004, dated 2008).
Values after ≈ are worked out from the molar mass of the structure shown. Counter-ions that a name gives are not always drawn.

Test: Water solubility at the designated pH
Type: physicochemical
From the text: As described herein, the present compounds are useful as prodrugs and, accordingly, impart improved physical and/or physiological characteristics over the parent compound. Such characteristics include half-life and water solubility. In certain embodiments, a compound of the present invention provides improvement with regard to one or more physical or physiological characteristics. In other embodiments, a compound of the present invention imparts improvement with regard to one or more physical and physiological characteristics. A summary of the results of comparison between certain compounds of the present invention and the parent compound is set forth in Table 3 below wherein all pharmacokinetic data reported was obtained in rat.
As used herein, the phrase “Relative AUC” refers to the ration of the area under the curve for a compound of the present invention and the area under the curve for the parent compound. Unless otherwise indicated, the data was obtained for the designated compound as the free base. The term “T½ (hr)” refers to the half life of the compound in hours. As used in Table 3, the term “Solubility” relates to the water solubility of the designated compound in mg per mL at the designated pH.

In the case of `CC[C@H](COC(=O)[C@@H](N)C(C)C)Nc1ncc(C)c(-c2c[nH]c(C(=O)N[C@H](COC(=O)[C@@H](N)C(C)C)c3cccc(Cl)c3)c2)n1` [Compound I-10, 2-(S)-Amino-3-methyl-butyric acid 2-(4-{5-[2-(2-(S)-amino-3-methyl-butyryloxy)-1-(3-chloro-(S)-phenyl)-ethylcarbamoyl]-1H-pyrrol-3-yl}-5-methyl-pyrimidin-2-ylamino)-(S)-butyl ester], the solubility (water solubility at pH 3.3) is reported as 11500 µg/mL (≈ 17.9 mM).

Compound `CC[C@H](COC(=O)CCC(=O)O)Nc1ncc(C)c(-c2c[nH]c(C(=O)N[C@H](COC(=O)CCC(=O)O)c3cccc(Cl)c3)c2)n1` [Compound I-18, Succinic acid, mono-[2-(4-{5-[2-(3-carboxy-propionyloxy)-1-(3-chloro-(S)-phenyl)-ethylcarbamyl]-1H-pyrrol-3-yl}-5-methyl-pyrimidin-2-ylamino)-(S)-butyl]ester] has a solubility (water solubility at pH 6.87) of 12600 µg/mL (≈ 19.6 mM).

Work on `CC[C@H](COC(C)=O)Nc1ncc(C)c(-c2c[nH]c(C(=O)N[C@H](COC(C)=O)c3cccc(Cl)c3)c2)n1` [I-1 (HCl salt)] yielded a solubility (water solubility at pH 2.2) of 19000 µg/mL.

Work on `CC[C@H](COC(=O)[C@@H](NC)C(C)C)Nc1ncc(C)c(-c2c[nH]c(C(=O)N[C@H](COC(=O)[C@@H](NC)C(C)C)c3cccc(Cl)c3)c2)n1` [I-20 (HCl salt), 3-Methyl-2-methylamino-butyric acid 2-(4-{5-[1-(3-chloro-phenyl)-2-(3-methyl-2-methylamino-butyryloxy)-ethylcarbamoyl]-1H-pyrrol-3-yl}-5-methyl-pyrimidin-2-ylamino)-butyl ester, tris HCl salt] yielded a solubility (water solubility at pH 3.8) of 7710 µg/mL.

Compound `CC[C@H](COC(=O)COCCOC)Nc1ncc(C)c(-c2c[nH]c(C(=O)N[C@H](COC(=O)COCCOC)c3cccc(Cl)c3)c2)n1` [I-21 Ms salt] has a solubility (water solubility at pH 2.5) of 12400 µg/mL.

With `CC[C@H](COP(=O)(O)O)Nc1ncc(C)c(-c2c[nH]c(C(=O)N[C@H](COP(=O)(O)O)c3cccc(Cl)c3)c2)n1` [I-23 (Na salt)] the solubility (water solubility at pH 7.15) was 3800 µg/mL.

`CCC(CO)Nc1ncc(C)c(-c2c[nH]c(C(=O)NC(CO)c3cccc(Cl)c3)c2)n1` (centres unmarked) [Parent, 4-[2-(1-hydroxymethyl-propylamino)-5-methyl-pyrimidin-4-yl]-1H-pyrrole-2-carboxylic acid [1-(3-chloro-phenyl)-2-hydroxy-ethyl]-amide, reference compound] showed a solubility (water solubility at pH 1) of 4700 µg/mL (≈ 10.6 mM) and a solubility (water solubility at pH 7) of 15 µg/mL (≈ 0.0338 mM).
